# Activity calls are given as the source filed them. The calls are words filed in the database; no cut-off is given here. Non-standard residues stand in square brackets, D forms with d. Residues, ends and D or L forms follow the SMILES beside them. *: point of attachment. pGlu = O=C1CC[C@@H](C(=O)O)N1; NHBn = c1ccc(CN*)cc1
# What was measured:
# [1] = biological target: T1, Thyrotropin releasing hormone degrading enzyme (Sus scrofa) (UniProt A0A287AP33); test: Substrate activity at pig brain TRH-DE assessed as retention time at 1 mM incubated for 18 hrs by HPLC analysis
# [2] = biological target: Thyrotropin releasing hormone degrading enzyme (Sus scrofa, UniProt A0A287AP33); test: Inhibition of pig brain TRH-DE using Glp-His-ProAMC as substrate by DPP-4-based continuous fluorometric method
# [3] = biological target: T1, Thyrotropin releasing hormone degrading enzyme (Sus scrofa); test: Substrate activity at pig brain TRH-DE assessed as Vmax to Km ratio
# [4] = biological target: T1, Thyrotropin releasing hormone degrading enzyme (Sus scrofa); test: Substrate activity at pig brain TRH-DE assessed as rate of hydrolysis at 1 mM incubated for 18 hrs by HPLC analysis
# [5] = biological target: T1, Thyrotropin releasing hormone degrading enzyme (Sus scrofa); test: Competitive inhibition of pig brain TRH-DE at 12.5 to 50 uM using Glp-His-ProAMC as substrate by Lineweaver-Burk analysis
# [6] = test system: Rattus norvegicus; test: In vivo inhibition of TRH-DE in cannulated Wistar rat assessed as TRH-mediated increase in locomotion at 10 mg/kg, ip measured every 5 mins for 30 secs during 40 mins of observation period; type: functional, organism-based
# [7] = biological target: T2, Thyrotropin-releasing hormone receptor (Rattus norvegicus, UniProt Q01717); test: Displacement of [3H]-3MeHis-TRH from TRH receptor in Sprague-Dawley rat cortical membranes
# T2 sequence (Q01717 whole entry): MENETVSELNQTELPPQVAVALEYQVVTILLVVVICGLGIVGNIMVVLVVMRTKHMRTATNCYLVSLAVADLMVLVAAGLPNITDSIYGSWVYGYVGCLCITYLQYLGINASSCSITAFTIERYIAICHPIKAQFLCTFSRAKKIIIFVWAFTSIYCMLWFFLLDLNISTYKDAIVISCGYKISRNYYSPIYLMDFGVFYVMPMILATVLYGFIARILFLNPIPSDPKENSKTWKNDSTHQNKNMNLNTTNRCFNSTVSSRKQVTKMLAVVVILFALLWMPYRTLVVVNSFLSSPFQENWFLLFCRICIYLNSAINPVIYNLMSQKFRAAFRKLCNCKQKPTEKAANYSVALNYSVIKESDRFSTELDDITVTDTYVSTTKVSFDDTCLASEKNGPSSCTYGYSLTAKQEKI
# [8] = test system: Rattus norvegicus; test: In vivo inhibition of TRH-DE in cannulated Wistar rat assessed as increase in TRH-mediated locomotion at 5 ug in 1 ul, icv after 30 mins; type: functional, organism-based
# [9] = biological target: T1, Thyrotropin releasing hormone degrading enzyme (Sus scrofa); test: Reversible inhibition of pig brain TRH-DE using Glp-His-ProAMC as substrate at 160 uM preincubated for 75 mins by DPP-4-based continuous fluorometric method
# [10] = biological target: T1, Thyrotropin releasing hormone degrading enzyme (Sus scrofa); test: Inhibition of pig brain TRH-DE at 1 mM using Glp-His-ProAMC as substrate by DPP-4-based continuous fluorometric method
# [11] = biological target: T1, Thyrotropin releasing hormone degrading enzyme (Sus scrofa); test: Reversible inhibition of pig brain TRH-DE using Glp-His-ProAMC as substrate at 400 uM preincubated for 75 mins by DPP-4-based continuous fluorometric method
# T1 sequence (A0A287AP33 as listed by the source): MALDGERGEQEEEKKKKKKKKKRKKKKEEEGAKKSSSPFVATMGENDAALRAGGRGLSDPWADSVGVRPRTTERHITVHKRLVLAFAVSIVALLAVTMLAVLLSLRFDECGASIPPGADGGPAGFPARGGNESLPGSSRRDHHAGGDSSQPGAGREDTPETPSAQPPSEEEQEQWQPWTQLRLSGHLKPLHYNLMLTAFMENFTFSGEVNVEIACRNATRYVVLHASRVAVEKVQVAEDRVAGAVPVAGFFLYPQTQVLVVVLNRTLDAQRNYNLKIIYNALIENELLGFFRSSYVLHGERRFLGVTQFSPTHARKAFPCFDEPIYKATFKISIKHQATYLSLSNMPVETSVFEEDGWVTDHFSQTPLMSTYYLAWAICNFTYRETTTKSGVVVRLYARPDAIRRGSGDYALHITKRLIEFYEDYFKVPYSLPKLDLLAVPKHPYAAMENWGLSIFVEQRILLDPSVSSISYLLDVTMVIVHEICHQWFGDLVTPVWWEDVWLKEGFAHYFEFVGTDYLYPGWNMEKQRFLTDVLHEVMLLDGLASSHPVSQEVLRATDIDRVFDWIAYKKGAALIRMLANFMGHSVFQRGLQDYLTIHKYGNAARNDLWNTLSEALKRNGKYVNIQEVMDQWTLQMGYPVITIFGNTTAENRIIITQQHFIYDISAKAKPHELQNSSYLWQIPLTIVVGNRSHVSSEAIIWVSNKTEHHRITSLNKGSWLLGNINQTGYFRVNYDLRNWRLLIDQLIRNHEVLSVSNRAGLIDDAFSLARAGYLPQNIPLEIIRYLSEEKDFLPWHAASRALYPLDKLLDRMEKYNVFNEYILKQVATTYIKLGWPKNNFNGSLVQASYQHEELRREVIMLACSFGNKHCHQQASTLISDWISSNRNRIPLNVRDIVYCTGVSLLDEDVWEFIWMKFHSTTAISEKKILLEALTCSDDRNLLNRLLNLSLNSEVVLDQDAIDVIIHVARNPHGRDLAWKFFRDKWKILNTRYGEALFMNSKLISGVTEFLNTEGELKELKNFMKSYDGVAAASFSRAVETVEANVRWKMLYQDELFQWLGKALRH
# Chain of Thyrotropin releasing hormone degrading enzyme (A0A287AP33 whole entry): as the sequence (A0A287AP33 as listed by the source) above
smiles,measurement,setting,value
NC(=O)C[C@H](NC(=O)[C@@H]1CCC(=O)N1)C(=O)N1CCC[C@H]1C(=O)NC(=O)C1CCCc2ccccc21 (some centres not stated),Retention time,[1],18.4 min
same,Ki,[2],22.4 µM
NC(=O)C[C@H](NC(=O)[C@@H]1CCC(=O)N1)C(=O)N1CCC[C@H]1C(=O)Nc1ccccc1CO,Retention time,[1],11.9 min
same,Ki,[2],20.6 µM
COc1ccc(NC(=O)[C@@H]2CCCN2C(=O)[C@H](CC(N)=O)NC(=O)[C@@H]2CCC(=O)N2)cc1,Retention time,[1],15 min
COc1cccc(NC(=O)[C@@H]2CCCN2C(=O)[C@H](CC(N)=O)NC(=O)[C@@H]2CCC(=O)N2)c1,Retention time,[1],15.9 min
COc1ccccc1NC(=O)[C@@H]1CCCN1C(=O)[C@H](CC(N)=O)NC(=O)[C@@H]1CCC(=O)N1,Retention time,[1],15.4 min
Cc1cc(=O)oc2cc(NC(=O)[C@@H]3CCCN3C(=O)[C@H](Cc3cnc[nH]3)NC(=O)[C@@H]3CCC(=O)N3)ccc12,Vmax/Km,[3],0.04 U/mg/µM
NC(=O)[C@@H]1CCCN1C(=O)[C@H](Cc1c[nH]cn1)NC(=O)[C@@H]1CCC(=O)N1,Activity,[4],2.54 U/mg
same,Vmax/Km,[3],0.08 U/mg/µM
O=C1CC[C@@H](C(=O)N[C@@H](Cc2cnc[nH]2)C(=O)N2CCC[C@H]2C(=O)O)N1,Activity,[4],3.38 U/mg
same,Vmax/Km,[3],0.01 U/mg/µM
C[C@H](NC(=O)[C@@H]1CCC(=O)N1)C(=O)N1CCC[C@H]1C(N)=O ([pGlu]-Ala-Pro-NH2),Activity,[4],0.02 U/mg
N=C(N)NCCC[C@H](NC(=O)[C@@H]1CCC(=O)N1)C(=O)N1CCC[C@H]1C(N)=O ([pGlu]-Arg-Pro-NH2),Activity,[4],0.41 U/mg
NC(=O)C[C@H](NC(=O)[C@@H]1CCC(=O)N1)C(=O)N1CCC[C@H]1C(N)=O ([pGlu]-Asn-Pro-NH2),inhibition,[5],Active
same,inhibition,[6],Active
same,Ki,[7],7.08 µM
same,inhibition,[8],Active
same,inhibition,[9],Active
same,inhibition,[10],97%
NC(=O)C[C@H](NC(=O)[C@@H]1CCC(=O)N1)C(=O)N1CCC[C@H]1C(=O)NCc1ccccc1 ([pGlu]-Asn-Pro-NHBn),Retention time,[1],14.3 min
NC(=O)[C@@H]1CCCN1C(=O)[C@H](CC(=O)O)NC(=O)[C@@H]1CCC(=O)N1 ([pGlu]-Asp-Pro-NH2),inhibition,[10],1%
NC(=O)CC[C@H](NC(=O)[C@@H]1CCC(=O)N1)C(=O)N1CCC[C@H]1C(N)=O ([pGlu]-Gln-Pro-NH2),inhibition,[10],83%
same,inhibition,[11],Active
NC(=O)[C@@H]1CCCN1C(=O)[C@H](CCC(=O)O)NC(=O)[C@@H]1CCC(=O)N1 ([pGlu]-Glu-Pro-NH2),inhibition,[10],17%
NC(=O)[C@@H]1CCCN1C(=O)CNC(=O)[C@@H]1CCC(=O)N1 ([pGlu]-Gly-Pro-NH2),inhibition,[10],8%
CC[C@H](C)[C@H](NC(=O)[C@@H]1CCC(=O)N1)C(=O)N1CCC[C@H]1C(N)=O ([pGlu]-Ile-Pro-NH2),Activity,[4],0.06 U/mg
